Columns and labels:
[1] = Dark toxicity against human MCF7 cells with low expression of alphaVbeta3 integrin assessed as decrease in cell viability incubated for 2 to 24 hrs by MTT assay; assay type: cell-based
[2] = Photostability in DMF assessed as release of singlet oxygen at 4 uM preincubated with DPBF in dark followed by irradiation with red light by DPBF decay assay; assay type: functional
[3] = system: MCF7; assay: Induction of reactive oxygen species formation in human MCF7 cells with […] expression of alphaVbeta3 integrin preincubated for 2 hrs followed by incubation with DCF-DA dye for 30 mins and measured after irradiation by fluorescence assay; assay type: functional, cell-based
[4] = Drug uptake in human MCF7 cells at 1 uM after 24 hrs by confocal laser scanning microscopic method; assay type: ADME, cell-based; conditions: mcf7, 24 h
[5] = system: H22; assay: Dark toxicity against […] cells expressing integrin xenografted in KM mouse at 0.5 nmol/g, iv administered 12 hrs measured every other day for 14 days; assay type: organism-based; conditions: in vivo, 336 h
[6] = system: H22; assay: Antitumor activity against […] cells expressing integrin xenografted in KM mouse assessed as tumor growth inhibition at 0.5 nmol/g, iv administered 12 hrs followed by irradiation with laser for 6 mins and measured after 14 days; assay type: functional
[7] = system: HT-29; assay: Induction of reactive oxygen species formation in human HT-29 cells with high expression of alphaVbeta3 integrin preincubated for 2 hrs followed by DCF-DA dye addition and measured after 30 mins in absence of light by fluorescence assay; assay type: cell-based; conditions: ht-29, 0.5 h
[8] = Dark toxicity against human HT-29 cells with high expression of alphaVbeta3 integrin assessed as decrease in cell viability incubated for 2 to 24 hrs by MTT assay; assay type: cell-based
[9] = Ratio of drug level in tumor of KM mouse xenografted with […] cells expressing integrin to liver of KM mouse xenografted with […] cells at 0.5 nmol/g, iv measured after 24 hrs; assay type: ADME, organism-based, Tumor/tissue; conditions: in vivo
[10] = Drug uptake in tumor of KM mouse xenografted with […] cells expressing integrin at 0.5 nmol/g, iv measured after 1 to 24 hrs by fluorescence imaging method; assay type: ADME, organism-based, Neoplasm; conditions: in vivo
[11] = system: HT-29; assay: Induction of reactive oxygen species formation in human HT-29 cells with high expression of alphaVbeta3 integrin preincubated for 2 hrs followed by incubation with DCF-DA dye for 30 mins and measured after irradiation by fluorescence assay; assay type: functional, cell-based
[12] = system: Mus musculus; assay: Drug uptake in KM mouse xenografted with […] cells at 0.5 nmol/g, iv measured up to 24 hrs by fluorescence imaging method; assay type: ADME, organism-based; conditions: in vivo
[13] = system: HT-29; assay: Photocytotoxicity against human HT-29 cells with high expression of alphaVbeta3 integrin assessed as decrease in cell viability preincubated for 2 hrs followed by red light irradiation and measured after overnight incubation by MTT assay; assay type: functional, cell-based; conditions: HT-29, light or radiation study
[14] = Aggregation behavior of compound in water at 3 uM by UV-vis absorption spectra analysis; assay type: physicochemical; conditions: buffer
[15] = system: MCF7; assay: Photocytotoxicity against human MCF7 cells with low expression of alphaVbeta3 integrin assessed as decrease in cell viability preincubated for 2 hrs followed by red light irradiation and measured after overnight incubation by MTT assay; assay type: functional, cell-based; conditions: MCF7, light or radiation study
[16] = system: MCF7; assay: Photocytotoxicity against human MCF7 cells with low expression of alphaVbeta3 integrin assessed as decrease in cell viability preincubated for 24 hrs followed by red light irradiation and measured after overnight incubation by MTT assay; assay type: functional, cell-based; conditions: MCF7, light or radiation study
[17] = Aggregation behavior of compound in RPMI 1640 medium with 0.05% cremophor EL at 3 uM by UV-vis absorption spectra analysis; assay type: physicochemical
[18] = system: MCF7; assay: Induction of reactive oxygen species formation in human MCF7 cells with low expression of alphaVbeta3 integrin preincubated for 2 hrs followed by DCF-DA dye addition and measured after 30 mins in absence of light by fluorescence assay; assay type: cell-based; conditions: mcf7, 0.5 h
[19] = system: HT-29; assay: Photocytotoxicity against human HT-29 cells with high expression of alphaVbeta3 integrin assessed as decrease in cell viability preincubated for 24 hrs followed by red light irradiation and measured after overnight incubation by MTT assay; assay type: functional, cell-based; conditions: HT-29, light or radiation study
[20] = system: Mus musculus; assay: Drug uptake in KM mouse xenografted with […] cells at 0.5 nmol/g, iv measured after 24 hrs by fluorescence imaging method; assay type: ADME, organism-based; conditions: in vivo
[21] = Selectivity ratio of IC50 for human MCF7 cells with low expression of alphaVbeta3 integrin to IC50 for human HT-29 cells with high expression of alphaVbeta3 integrin preincubated for 24 hrs followed by red light irradiation and measured after overnight incubation by MTT assay; assay type: functional
[22] = Ratio of drug level in tumor of KM mouse xenografted with […] cells expressing integrin to kidney of KM mouse xenografted with […] cells at 0.5 nmol/g, iv measured after 24 hrs; assay type: ADME, organism-based, Tumor/tissue; conditions: in vivo
[23] = Selectivity ratio of IC50 for human MCF7 cells with low expression of alphaVbeta3 integrin to IC50 for human HT-29 cells with high expression of alphaVbeta3 integrin preincubated for 2 hrs followed by red light irradiation and measured after overnight incubation by MTT assay; assay type: functional
[24] = system: HaCaT; assay: Photocytotoxicity against human HaCaT cells assessed as decrease in cell viability preincubated for 2 hrs followed by red light irradiation and measured after overnight incubation by MTT assay; assay type: cell-based; conditions: light or radiation study
[25] = Drug uptake in lysosome of human HT-29 cells at 1 uM incubated for 0.5 hrs by Lyso Tracker red dye-based confocal laser scanning microscopic method; assay type: ADME, subcellular; conditions: ht-29, 0.5 h
[26] = Selectivity index, ratio of IC50 for photocytotoxicity against human HaCaT cells to IC50 for photocytotoxicity against human HT-29 cells with high expression of alphaVbeta3 integrin; assay type: toxicity, cell-based; conditions: read-out: Ratio IC50
[27] = Aggregation behavior of compound in DMF at 1 to 6 uM by UV-vis absorption spectra analysis; assay type: physicochemical
[28] = system: HaCaT; assay: Photocytotoxicity against human HaCaT cells assessed as decrease in cell viability preincubated for 24 hrs followed by red light irradiation and measured after overnight incubation by MTT assay; assay type: cell-based; conditions: light or radiation study

- Drug uptake [4]: Not Active
- Ratio [9]: 2.1
- Drug uptake [10]: Active
- Drug uptake [12]: Active
- Activity [14]: Not Active
- Activity [17]: Not Active
- Drug uptake [20]: Not Active
- Ratio [22]: 2
- Drug uptake [25]: Active
- Activity [27]: Not Active
Structure (SMILES): N=C(N)NCCC[C@@H]1NC(=O)[C@H](Cc2cn(CCOCCOCCO[Si]3(OCCOCCOCCn4cc(C[C@@H]5NC(=O)[C@@H](Cc6ccccc6)NC(=O)[C@H](CC(=O)O)NC(=O)CNC(=O)[C@H](CCCNC(=N)N)NC5=O)nn4)n4c5c6ccccc6c4/N=C4N=C(/N=c6/c7ccccc7/c(n63)=N/C3=NC(=N\5)/c5ccccc53)c3ccccc3\4)nn2)NC(=O)[C@@H](Cc2ccccc2)NC(=O)[C@H](CC(=O)O)NC(=O)CNC1=O (stereo partly drawn)
- Activity [1]: Non-Toxic
- Stability [2]: Unstable
- Activity [3]: Dose-dependent effect
- Activity [5]: Non-Toxic
- TGI [6]: 75%
- Activity [7]: Non-Toxic
- Activity [8]: Non-Toxic
- Activity [11]: Dose-dependent effect
- IC50 [13]: 30 nM
- IC50 [15]: 100 nM
- IC50 [16]: 66 nM
- Activity [18]: Non-Toxic
- IC50 [19]: 23 nM
- Ratio IC50 [21]: 2.87
- Ratio IC50 [23]: 3.33
- IC50 [24]: 60 nM
- selectivity ratio [26]: 2
- IC50 [28]: 56 nM

— ChEMBL document CHEMBL4152282, “Synthesis and photodynamic activities of integrin-targeting silicon(IV) phthalocyanine-cRGD conjugates” (Eur J Med Chem, 2018)
